Laboratory results as given in patent US12077503B2, “Substituted cyclic amides and their use as herbicides” (FMC CORPORATION, priority 2015, dated 2024).

What was measured:
Format in all cases: in vivo
[1] = test system: barnyardgrass (Echinochloa crus-galli); test: Test B flooded paddy test; settings: Echinochloa crus-galli, 250 g ai/ha, Flood; 0 to 100 scale where 0 is no effect and 100 is complete control; read-out: Barnyardgrass plant response rating
Procedure, shortened: (§1)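 Greenhouse paddy pots with 2-leaf stage plants received compound by direct addition to floodwater 3 cm deep, kept at that level. Scored visually at 13–15 d versus controls (0 no effect; 100 complete control).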

[2] = test system: ducksalad (Heteranthera limosa); test: Test B flooded paddy test; settings: Heteranthera limosa, 250 g ai/ha, Flood; 0 to 100 scale where 0 is no effect and 100 is complete control; read-out: Ducksalad plant response rating
Procedure, shortened: as §1

[3] = test system: sedge, umbrella (small-flower umbrella sedge, Cyperus difformis); test: Test B flooded paddy test; settings: Cyperus difformis, 250 g ai/ha, Flood; 0 to 100 scale where 0 is no effect and 100 is complete control; read-out: Sedge, Umbrella plant response rating
Procedure, shortened: as §1

rice (Oryra sativa) = test: Test B flooded paddy test; settings: Oryza sativa, 250 g ai/ha, Flood; 0 to 100 scale where 0 is no effect and 100 is complete control; read-out: Rice plant response rating
Procedure, shortened: as §1

[4] = test system: barnyardgrass (Echinochloa crus-galli); test: Test A postemergence; settings: Echinochloa crus-galli, post-emergence, 240 h; for pest or weed control at 125 g/ha: 125 g ai/ha, postemergence, visual injury on 0 to 100 scale (0 no effect, 100 complete control), approx. 10 d, read-out: Barnyardgrass plant response rating; for pest or weed control at 31 g/ha: Postemergence, 31 g ai/ha, visual injury after approx. 10 d, 0 to 100 scale, 0 no effect, 100 complete control, read-out: Plant response rating, Barnyardgrass
Procedure, shortened: (§2)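 Seeded soil received test chemicals as a preemergence directed spray, and seedlings at one to two leaves, 2–10 cm tall, received them postemergence, in a non-phytotoxic, surfactant-containing solvent mixture. Pots were held in a greenhouse for approximately 10 d, then rated for injury from 0, no effect, to 100, complete control.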

corn (Zea mays) = test: Test A postemergence; settings: Zea mays, post-emergence, 240 h; for plant injury at 125 g/ha: 125 g ai/ha, postemergence, visual injury on 0 to 100 scale (0 no effect, 100 complete control), approx. 10 d, read-out: Corn plant response rating; for Corn plant response rating (crop injury, 0 = no effect, 100 = complete kill) at 31 g/ha: Postemergence, 31 g ai/ha, visual injury after approx. 10 d, 0 to 100 scale, 100 complete control
Procedure, shortened: as §2

[5] = test system: wheat (Triticum aestivum); test: Test A postemergence; settings: Triticum aestivum, post-emergence, 240 h; for plant injury at 125 g/ha: 125 g ai/ha, postemergence, visual injury on 0 to 100 scale (0 no effect, 100 complete control), approx. 10 d, read-out: Wheat plant response rating; for plant injury at 31 g/ha: Postemergence, 31 g ai/ha, visual injury after approx. 10 d, 0 to 100 scale, 0 no effect, 100 complete control, read-out: Plant response rating, Wheat
Procedure, shortened: as §2

[6] = test system: ryegrass, Italian (Italian ryegrass, Lolium multiflorum); test: Test A postemergence; settings: Lolium multiflorum, post-emergence, 240 h; for pest or weed control at 125 g/ha: 125 g ai/ha, postemergence, visual injury on 0 to 100 scale (0 no effect, 100 complete control), approx. 10 d, read-out: Ryegrass, Italian plant response rating; for pest or weed control at 31 g/ha: Postemergence, 31 g ai/ha, visual injury after approx. 10 d, 0 to 100 scale, 0 no effect, 100 complete control, read-out: Plant response rating, Ryegrass, Italian
Procedure, shortened: as §2

[7] = test system: ragweed (common ragweed, Ambrosia elatior); test: Test A postemergence; settings: Ambrosia artemisiifolia, post-emergence, 240 h; for pest or weed control at 125 g/ha: 125 g ai/ha, postemergence, visual injury on 0 to 100 scale (0 no effect, 100 complete control), approx. 10 d, read-out: Ragweed plant response rating; for pest or weed control at 31 g/ha: Postemergence, 31 g ai/ha, visual injury after approx. 10 d, 0 to 100 scale, 0 no effect, 100 complete control, read-out: Plant response rating, Ragweed
Procedure, shortened: as §2

[8] = test system: Galium (catchweed bedstraw, Galium aparine); test: Test A postemergence; settings: Galium, post-emergence, 240 h; for pest or weed control at 125 g/ha: 125 g ai/ha, postemergence, visual injury on 0 to 100 scale (0 no effect, 100 complete control), approx. 10 d, read-out: Galium plant response rating; for pest or weed control at 31 g/ha: Postemergence, 31 g ai/ha, visual injury after approx. 10 d, 0 to 100 scale, 0 no effect, 100 complete control, read-out: Plant response rating, Galium
Procedure, shortened: as §2

Kochia (Kochia scoparia) [9] = test: Test A postemergence; settings: Bassia scoparia, post-emergence, 240 h; for pest or weed control at 125 g/ha: 125 g ai/ha, postemergence, visual injury on 0 to 100 scale (0 no effect, 100 complete control), approx. 10 d, read-out: Kochia plant response rating; for pest or weed control at 31 g/ha: Postemergence, 31 g ai/ha, visual injury after approx. 10 d, 0 to 100 scale, 0 no effect, 100 complete control, read-out: Plant response rating, Kochia
Procedure, shortened: as §2

[10] = test system: blackgrass (Alopecurus myosuroides); test: Test A postemergence; settings: Alopecurus myosuroides, post-emergence, 240 h; for pest or weed control at 125 g/ha: 125 g ai/ha, postemergence, visual injury on 0 to 100 scale (0 no effect, 100 complete control), approx. 10 d, read-out: Blackgrass plant response rating; for pest or weed control at 31 g/ha: Postemergence, 31 g ai/ha, visual injury after approx. 10 d, 0 to 100 scale, 0 no effect, 100 complete control, read-out: Plant response rating, Blackgrass
Procedure, shortened: as §2

[11] = test system: giant foxtail (Setaria faberii); test: Test A postemergence; settings: Setaria faberi, post-emergence, 240 h; for pest or weed control at 125 g/ha: 125 g ai/ha, postemergence, visual injury on 0 to 100 scale (0 no effect, 100 complete control), approx. 10 d, read-out: Foxtail, Giant plant response rating; for pest or weed control at 31 g/ha: Postemergence, 31 g ai/ha, visual injury after approx. 10 d, 0 to 100 scale, 0 no effect, 100 complete control, read-out: Plant response rating, Foxtail, Giant
Procedure, shortened: as §2

[12] = test system: pigweed (Amaranthus retroflexus); test: Test A postemergence; settings: Amaranthus retroflexus, post-emergence, 240 h; for pest or weed control at 125 g/ha: 125 g ai/ha, postemergence, visual injury on 0 to 100 scale (0 no effect, 100 complete control), approx. 10 d, read-out: Pigweed plant response rating; for pest or weed control at 31 g/ha: Postemergence, 31 g ai/ha, visual injury after approx. 10 d, 0 to 100 scale, 0 no effect, 100 complete control, read-out: Plant response rating, Pigweed
Procedure, shortened: as §2

[13] = test system: barnyardgrass (Echinochloa crus-galli); test: Test A preemergence; settings: Echinochloa crus-galli, pre-emergence, 240 h; for pest or weed control at 31 g/ha: 31 g ai/ha; for pest or weed control at 125 g/ha: 125 g ai/ha
Procedure, shortened: as §2

[14] = test system: ryegrass, Italian (Italian ryegrass, Lolium multiflorum); test: Test A preemergence; settings: Lolium multiflorum, pre-emergence, 240 h, 0 to 100 scale where 0 is no effect and 100 is complete control, read-out: Ryegrass, Italian plant response rating; for pest or weed control at 31 g/ha: 31 g ai/ha, Preemergence; for pest or weed control at 125 g/ha: 125 g ai/ha, preemergence, approx. 10 d
Procedure, shortened: as §2

[15] = test system: ragweed (common ragweed, Ambrosia elatior); test: Test A preemergence; settings: Ambrosia artemisiifolia, pre-emergence, 240 h, 0 to 100 scale where 0 is no effect and 100 is complete control, read-out: Ragweed plant response rating; for pest or weed control at 31 g/ha: 31 g ai/ha, Preemergence; for pest or weed control at 125 g/ha: 125 g ai/ha, preemergence, approx. 10 d
Procedure, shortened: as §2

Kochia (Kochia scoparia) [16] = test: Test A preemergence; settings: Bassia scoparia, pre-emergence, 240 h, 0 to 100 scale where 0 is no effect and 100 is complete control, read-out: Kochia plant response rating; for pest or weed control at 31 g/ha: 31 g ai/ha, Preemergence; for pest or weed control at 125 g/ha: 125 g ai/ha, preemergence, approx. 10 d
Procedure, shortened: as §2

[17] = test system: giant foxtail (Setaria faberii); test: Test A preemergence; settings: Setaria faberi, pre-emergence, 240 h; for pest or weed control at 31 g/ha: 31 g ai/ha; for pest or weed control at 125 g/ha: 125 g ai/ha
Procedure, shortened: as §2

[18] = test system: pigweed (Amaranthus retroflexus); test: Test A preemergence; settings: Amaranthus retroflexus, pre-emergence, 240 h, 0 to 100 scale where 0 is no effect and 100 is complete control, read-out: Pigweed plant response rating; for pest or weed control at 31 g/ha: 31 g ai/ha, Preemergence; for pest or weed control at 125 g/ha: 125 g ai/ha, preemergence, approx. 10 d
[19] = Preemergence, 0 to 100 scale where 0 is no effect and 100 is complete control, read-out: Barnyardgrass plant response rating
[20] = Preemergence, 0 to 100 scale where 0 is no effect and 100 is complete control, read-out: Foxtail, Giant plant response rating

SMILES	pest or weed control at 250 g/ha [1]	pest or weed control at 250 g/ha [2]	pest or weed control at 250 g/ha [3]	pest or weed control at 250 g/ha (rice (Oryra sativa))	pest or weed control at 125 g/ha [4]	pest or weed control at 31 g/ha [4]	plant injury at 125 g/ha (corn (Zea mays))	Corn plant response rating (crop injury, 0 = no effect, 100 = complete kill) at 31 g/ha (corn (Zea mays))	plant injury at 125 g/ha [5]	plant injury at 31 g/ha [5]	pest or weed control at 125 g/ha [6]	pest or weed control at 31 g/ha [6]	pest or weed control at 125 g/ha [7]	pest or weed control at 31 g/ha [7]	pest or weed control at 125 g/ha [8]	pest or weed control at 31 g/ha [8]	pest or weed control at 125 g/ha (Kochia (Kochia scoparia) [9])	pest or weed control at 31 g/ha (Kochia (Kochia scoparia) [9])	pest or weed control at 125 g/ha [10]	pest or weed control at 31 g/ha [10]	other results
CN1C[C@H](c2csc3c2CCOC3)[C@@H](C(=O)Nc2ccccc2S(C)(=O)=O)C1=O [Compound 1078]	30%	0%	0%	0%	10%	0%	0%	0%	0%	0%	0%	0%	0%	0%	0%	0%	0%	0%	0%	0%	pest or weed control at 125 g/ha [11]: 0%; pest or weed control at 31 g/ha [11]: 0%; pest or weed control at 125 g/ha [12]: 0%; pest or weed control at 31 g/ha [12]: 0%; pest or weed control at 31 g/ha [13, 19]: 0%; pest or weed control at 125 g/ha ([13]; preemergence, 0 to 100 scale where 0 is no effect and 100 is complete control, approx. 10 d, read-out: Barnyardgrass plant response rating): 0%; pest or weed control at 31 g/ha [14]: 0%; pest or weed control at 125 g/ha [14]: 0%; pest or weed control at 31 g/ha [15]: 0%; pest or weed control at 125 g/ha [15]: 0%; pest or weed control at 31 g/ha (Kochia (Kochia scoparia) [16]): 0%; pest or weed control at 125 g/ha (Kochia (Kochia scoparia) [16]): 0%; pest or weed control at 31 g/ha [17, 20]: 0%; pest or weed control at 125 g/ha ([17]; preemergence, 0 to 100 scale where 0 is no effect and 100 is complete control, approx. 10 d, read-out: Foxtail, Giant plant response rating): 0%; pest or weed control at 31 g/ha [18]: 0%; pest or weed control at 125 g/ha [18]: 0%
Cc1ccncc1NC(=O)[C@H]1C(=O)N(C)C[C@@H]1c1ccc(C(F)(F)F)cc1 [Compound 1068]	0%	90%	0%	0%	0%	0%	0%	0%	0%	0%	0%	0%	0%	0%	0%	0%	0%	0%	0%	0%	pest or weed control at 125 g/ha [11]: 0%; pest or weed control at 31 g/ha [11]: 0%; pest or weed control at 125 g/ha [12]: 0%; pest or weed control at 31 g/ha [12]: 0%; pest or weed control at 31 g/ha [13, 19]: 0%; pest or weed control at 125 g/ha ([13]; Preemergence, visual injury rating after approximately 10 d, read-out: Barnyardgrass plant response rating (0 to 100 scale, 0 is no effect, 100 is complete control)): 0%; pest or weed control at 31 g/ha [14]: 0%; pest or weed control at 125 g/ha [14]: 0%; pest or weed control at 31 g/ha [15]: 0%; pest or weed control at 125 g/ha [15]: 0%; pest or weed control at 31 g/ha (Kochia (Kochia scoparia) [16]): 0%; pest or weed control at 125 g/ha (Kochia (Kochia scoparia) [16]): 0%; pest or weed control at 31 g/ha [17, 20]: 0%; pest or weed control at 125 g/ha ([17]; Preemergence, visual injury rating after approximately 10 d, read-out: Foxtail, Giant plant response rating (0 to 100 scale, 0 is no effect, 100 is complete control)): 0%; pest or weed control at 31 g/ha [18]: 0%; pest or weed control at 125 g/ha [18]: 0%
